Results taken from patent EP4806898A1, “HETEROARYL DERIVATIVE COMPOUND AND USE THEREOF” (Voronoi Inc., priority 2023, dated 2025).

Tests used:
UWB1.289 cells = assay: Cell proliferation inhibitory activity in BRCA1/2-mutant or HRD-positive cells (Cell Titer-Glo); format: cell-based; conditions: UWB1289; UWB1.289 cells, 144 hours after compound treatment, Cell Titer-Glo, 1.5 nM to 10 µM; read-out: GI50 UWB1.289 BRCA1 mut
Summary of the method: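 GI50 from CellTiter-Glo luminescence after 144 h compound exposure at 37 °C. Cells seeded at 1,000 per well in MEBM/RPMI1640 mix 16–24 h beforehand; […] from 10 µM down to 1.5 nM final (3-fold steps).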

recombinant USP1 protein = molecular target: T1, recombinant USP1 protein (Homo sapiens, UniProt O94782, DEL125-138/DEL229-408/DEL608-737); assay: Binding affinity to recombinant USP1 protein by differential scanning fluorimetry; conditions: compound 100 µM; 0.03 mg/mL USP1 (Δ1-66, Δ125-138, Δ229-408, Δ608-737); Tm with compound minus Tm with DMSO; read-out: ΔTm (°C)
T1 sequence (O94782 with tags, fused parts or gaps DEL125-138/DEL229-408/DEL608-737): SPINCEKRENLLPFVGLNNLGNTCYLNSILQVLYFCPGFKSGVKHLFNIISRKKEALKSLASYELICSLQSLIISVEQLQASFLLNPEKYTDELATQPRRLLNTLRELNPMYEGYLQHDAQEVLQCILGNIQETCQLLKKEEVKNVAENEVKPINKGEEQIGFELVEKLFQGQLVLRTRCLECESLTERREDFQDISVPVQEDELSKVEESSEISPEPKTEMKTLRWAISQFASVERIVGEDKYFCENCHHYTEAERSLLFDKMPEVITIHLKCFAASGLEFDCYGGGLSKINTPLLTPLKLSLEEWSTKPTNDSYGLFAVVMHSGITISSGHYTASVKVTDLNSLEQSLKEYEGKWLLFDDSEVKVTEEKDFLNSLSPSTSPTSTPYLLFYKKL
Summary of the method: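 Thermal shift readout: ΔTm is the compound-well melting temperature less the DMSO-well value, measured by real-time PCR. Compounds tested at 100 µM final against 0.03 mg/mL truncated USP1 (Δ1-66, Δ125-138, Δ229-408, Δ608-737) in pH 8.0 Tris buffer containing 150 mM NaCl, 2% glycerol, 1 mM DTT.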

Row | Structure (SMILES) | ΔTm at 100 µM (recombinant USP1 protein) [°C] | GI50 (UWB1.289 cells) [nM]
1 | COc1ncnc(C2CC2)c1-c1ncc2cc(C(=O)NC3CCN(C)CC3)n(Cc3ccc(-c4nc(C(F)(F)F)cn4C(C)C)cc3)c2n1 [Example 69, 2-(4-cyclopropyl-6-methoxypyrimidin-5-yl)-7-(4-(1-isopropyl-4-(trifluoromethyl)-1H-imidazol-2-yl)benzyl)-N-(1-methylpiperidin-4-yl)-7H-pyrrolo[2,3-d]pyrimidine-6-carboxamide] | > 5 | < 100
2 | COc1ncnc(C2CC2)c1-c1ncc2cc(C(=O)N(C)CC(F)(F)F)n(Cc3ccc(-c4nc(C(F)(F)F)cn4C(C)C)cc3)c2n1 [Example 70, 2-(4-cyclopropyl-6-methoxypyrimidin-5-yl)-7-(4-(1-isopropyl-4-(trifluoromethyl)-1H-imidazol-2-yl)benzyl)-N-methyl-N-(2,2,2-trifluoroethyl)-7H-pyrrolo[2,3-d]pyrimidine-6-carboxamide] | > 5 | 100 to 500
3 | COCC1CN(C(=O)c2cc3cnc(-c4c(OC)ncnc4C4CC4)nc3n2Cc2ccc(-c3nc(C(F)(F)F)cn3C(C)C)cc2)C1 [Example 71, (2-(4-cyclopropyl-6-methoxypyrimid in-5-yl)-7-(4-(1-isopropyl-4-(trifluoromethyl)-1H-imidazol-2-yl)benzyl)-7H-pyrrolo[2,3-d]pyrimidin-6-yl) (3-(methoxymethyl)azetidin-1-yl)methanone] | > 5 | < 100
4 | COc1ncnc(C2CC2)c1-c1ncc2cc(C(=O)N3CCC(F)(F)C3)n(Cc3ccc(-c4nc(C(F)(F)F)cn4C(C)C)cc3)c2n1 [Example 73, (2-(4-cyclopropyl-6-methoxypyrimid in-5-yl)-7-(4-(1-isopropyl-4-(trifluoromethyl)-1H-imidazol-2-yl)benzyl)-7H-pyrrolo[2,3-d]pyrimidin-6-yl)(3,3-difluoropyrrolidin-1-yl)methanone] | > 5 | 100 to 500
5 | COc1ncnc(C2CC2)c1-c1ncc2cc(C(=O)N3CC(CS(C)(=O)=O)C3)n(Cc3ccc(-c4nc(C(F)(F)F)cn4C(C)C)cc3)c2n1 [Example 75, (2-(4-cyclopropyl-6-methoxypyrimid in-5-yl)-7-(4-(1-isopropyl-4-(trifluoromethyl)-1H-imidazol-2-yl)benzyl)-7H-pyrrolo[2,3-d]pyrimidin-6-yl) (3-((methylsulfonyl)methyl)azetidin-1-yl)methanone] | > 5 | 100 to 500
6 | COc1ncnc(C2CC2)c1-c1ncc2cc(C(=O)NC3CCS(=O)(=O)C3)n(Cc3ccc(-c4nc(C(F)(F)F)cn4C(C)C)cc3)c2n1 (stereo not drawn) [Example 78, 2-(4-cyclopropyl-6-methoxypyrimidin-5-yl)-N-(1,1-dioxidotetrahydrothiophen-3-yl)-7-(4-(1-isopropyl-4-(trifluoromethyl)-1H-imidazol-2-yl)benzyl)-7H-pyrrolo[2,3-d]pyrimidine-6-carboxamide] | > 5 | 100 to 500
7 | COc1ncnc(C2CC2)c1-c1ncc2cc(C(=O)NC3(C)CC3)n(Cc3ccc(-c4nc(C(F)(F)F)cn4C(C)C)cc3)c2n1 [Example 79, 2-(4-cyclopropyl-6-methoxypyrimidin-5-yl)-7-(4-(1-isopropyl-4-(trifluoromethyl)-1H-imidazol-2-yl)benzyl)-N-(1-methylcyclopropyl)-7H-pyrrolo[2,3-d]pyrimidine-6-carboxamide] | > 5 | 100 to 500
8 | COc1ncnc(C2CC2)c1-c1ncc2cc(C(=O)NCC3CCC(F)(F)C3)n(Cc3ccc(-c4nc(C(F)(F)F)cn4C(C)C)cc3)c2n1 (stereo not drawn) [Example 80, 2-(4-cyclopropyl-6-methoxypyrimidin-5-yl)-N-((3,3-difluorocyclopentyl)methyl)-7-(4-(1-isopropyl-4-(trifluoromethyl)-1H-imidazol-2-yl)benzyl)-7H-pyrrolo[2,3-d]pyrimidine-6-carboxamide] | > 5 | 100 to 500
9 | CC[C@H](C)NC(=O)c1cc2cnc(-c3c(OC)ncnc3C3CC3)nc2n1Cc1ccc(-c2nc(C(F)(F)F)cn2C(C)C)cc1 [Example 82, (S)-N-(sec-butyl)-2-(4-cyclopropyl-6-methoxypyrimidin-5-yl)-7-(4-(1-isopropyl-4-(trifluoromethyl)-1H-imidazol-2-yl)benzyl)-7H-pyrrolo[2,3-d]pyrimidine-6-carboxamide] | > 5 | < 100

Now from value to compound, other results behind:

Row | ΔTm at 100 µM (recombinant USP1 protein) [°C] | Structure (SMILES) | GI50 (UWB1.289 cells) [nM]
10 | > 5 | COc1ncnc(C2CC2)c1-c1ncc2cc(C(=O)N[C@H](C)CCO)n(Cc3ccc(-c4nc(C(F)(F)F)cn4C(C)C)cc3)c2n1 [Example 83, (R)-2-(4-cyclopropyl-6-methoxypyrimidin-5-yl)-N-(4-hydroxybutan-2-yl)-7-(4-(1-isopropyl-4-(trifluoromethyl)-1H-imidazol-2-yl)benzyl)-7H-pyrrolo[2,3-d]pyrimidine-6-carboxamide] | < 100
11 | > 5 | COc1ncnc(C2CC2)c1-c1ncc2cc(C(=O)N[C@H](C)C(F)(F)F)n(Cc3ccc(-c4nc(C(F)(F)F)cn4C(C)C)cc3)c2n1 [Example 85, (R)-2-(4-cyclopropyl-6-methoxypyrimidin-5-yl)-7-(4-(1-isopropyl-4-(trifluoromethyl)-1H-imidazol-2-yl)benzyl)-N-(1,1,1-trifluoropropan-2-yl)-7H-pyrrolo[2,3-d]pyrimidine-6-carboxamide] | 100 to 500
12 | > 5 | COc1ncnc(C2CC2)c1-c1ncc2cc(C(=O)N[C@@H](C)C(F)(F)F)n(Cc3ccc(-c4nc(C(F)(F)F)cn4C(C)C)cc3)c2n1 [Example 86, (S)-2-(4-cyclopropyl-6-methoxypyrimidin-5-yl)-7-(4-(1-isopropyl-4-(trifluoromethyl)-1H-imidazol-2-yl)benzyl)-N-(1,1,1-trifluoropropan-2-yl)-7H-pyrrolo[2,3-d]pyrimidine-6-carboxamide] | < 100
13 | > 5 | COc1ncnc(C2CC2)c1-c1ncc2cc(C(=O)NCC3CCN(C)CC3)n(Cc3ccc(-c4nc(C(F)(F)F)cn4C(C)C)cc3)c2n1 [Example 87, 2-(4-cyclopropyl-6-methoxypyrimidin-5-yl)-7-(4-(1-isopropyl-4-(trifluoromethyl)-1H-imidazol-2-yl)benzyl)-N-((1-methylpiperidin-4-yl)methyl)-7H-pyrrolo[2,3-d]pyrimidine-6-carboxamide] | 100 to 500
14 | > 5 | COc1ncnc(C2CC2)c1-c1ncc2cc(C(=O)NC34CC(F)(C3)C4)n(Cc3ccc(-c4nc(C(F)(F)F)cn4C(C)C)cc3)c2n1 [Example 89, 2-(4-cyclopropyl-6-methoxypyrimidin-5-yl)-N-(3-fluorobicyclo[1.1.1]pentan-1-yl)-7-(4-(1-isopropyl-4-(trifluoromethyl)-1H-imidazol-2-yl)benzyl)-7H-pyrrolo[2,3-d]pyrimidine-6-carboxamide] | 100 to 500
15 | > 5 | COc1ncnc(C2CC2)c1-c1ncc2cc(C(=O)NCCC3CC(F)(F)C3)n(Cc3ccc(-c4nc(C(F)(F)F)cn4C(C)C)cc3)c2n1 [Example 90, 2-(4-cyclopropyl-6-methoxypyrimidin-5-yl)-N-(2-(3,3-difluorocyclobutyl)ethyl)-7-(4-(1-isopropyl-4-(trifluoromethyl)-1H-imidazol-2-yl)benzyl)-7H-pyrrolo[2,3-d]pyrimidine-6-carboxamide] | < 100
